Experimental data taken from patent publication US20110028420A1, “Regression of Established Atherosclerotic Plaques, and Treating Sudden-Onset Asthma Attacks, using PARP Inhibitors” (priority 2008, published 2011).

Assays:
TNF = experiment: Quantitative RT-PCR of TNF; assay type: in vivo, mice; settings: Group 6
C57BL/6 mice [1] = experiment: Eosinophil and inflammatory cell infiltration in lungs and BAL fluid of OVA-sensitized and challenged mice; assay type: in vivo
Method: (§1) Mice were bred in a pathogen-free facility at the Louisiana State University Health Science Center (LSUHSC), New Orleans, La., and were given unlimited access to sterilized chow and water. Animal maintenance, experimental protocols, and procedures were approved by the LSUHSC Animal Care & Use Committee. C57BL/6 mice were purchased from Jackson Laboratories (Bar Harbor, Me.). Six-week old C57BL/6 mice (n z 5) were sensitized with two, 100 μg i.p. injections of Grade V chicken ovalbumin (OVA) (Sigma-Aldrich, St. Louis Mo.), mixed with 2 mg aluminum hydroxide in saline. The two injections were given seven days apart. One week after the second sensitization the mice were placed in a Plexiglas chamber and challenged with aerosolized ovalbumin (3% OVA in saline, generated by a Bennett nebulizer, DeVilbiss, Pa.). The challenged mice were held in the chamber with the aerosolized OVA for 30 min. Additional groups of mice were treated by the same protocol, except that they received 6 mg/kg TIQ-A (i.p.) 2 hours prior to challenge, 1 hour post-challenge, or 6 hours post-challenge with OVA. Control groups were neither sensitized, nor challenged. The mice used in each experiment were from the same litter or the same family. Mice were allowed to recover, and then killed by CO2 asphyxiation after 24 or 48 hours. The sacrificed mice were subjected to bronchio-alveolar lavage (BAL), or their lung tissues were dissected, fixed, and processed for histological analysis.
(§2) A final volume of 5 ml saline was used in BAL to assess inflammatory cells (48 hours post OVA-challenge), or 1 ml saline was used to assess cytokines or IgE (24 hours post OVA-challenge). Formalin-fixed lungs were sectioned and subjected to haematoxylin and eosin (H&E), Periodic Acid-Schiff (PAS)-staining using standard protocols. Mucin was assessed essentially as described in L. Whittaker et al., Am. J. Respir. Cell. Mol. Biol., vol. 27, pp. 593-602 (2002). […] OVA-specific IgE was quantified by a sandwich ELISA (Serotec, Raleigh, N.C.) essentially as described in Oumona et al. (2006).

IL-4, IL-5 and IL-13 = experiment: Th2 cytokines in BAL fluid of OVA-challenged mice (Bio-Rad Bioplex); assay type: in vivo; settings: BAL 24 hours after challenge; TIQ-A after versus before OVA challenge
Method: (§3) Mice were bred in a pathogen-free facility at the Louisiana State University Health Science Center (LSUHSC), New Orleans, La., and were given unlimited access to sterilized chow and water. Animal maintenance, experimental protocols, and procedures were approved by the LSUHSC Animal Care & Use Committee. C57BL/6 mice were purchased from Jackson Laboratories (Bar Harbor, Me.). Six-week old C57BL/6 mice (n z 5) were sensitized with two, 100 μg i.p. injections of Grade V chicken ovalbumin (OVA) (Sigma-Aldrich, St. Louis Mo.), mixed with 2 mg aluminum hydroxide in saline. The two injections were given seven days apart. One week after the second sensitization the mice were placed in a Plexiglas chamber and challenged with aerosolized ovalbumin (3% OVA in saline, generated by a Bennett nebulizer, DeVilbiss, Pa.). The challenged mice were held in the chamber with the aerosolized OVA for 30 min. […]
(§4) A final volume of 5 ml saline was used in BAL to assess inflammatory cells (48 hours post OVA-challenge), or 1 ml saline was used to assess cytokines or IgE (24 hours post OVA-challenge). […] Mucin was assessed essentially as described in L. Whittaker et al., Am. […] OVA-specific IgE was quantified by a sandwich ELISA (Serotec, Raleigh, N.C.) essentially as described in Oumona et al. (2006).

OVA-specific IgE = OVA-specific IgE in BAL fluid (sandwich ELISA); assay type: in vivo, mice; settings: 24 hours post-challenge
Method: as §3, §4

C57BL/6 mice [2] = experiment: Mucus production in airways of OVA-challenged mice (PAS staining, histological mucin index); assay type: in vivo
Method: as §1, §2

C57BL/6 mice [3] = experiment: Airway hyperresponsiveness: lung resistance to methacholine by forced oscillation; assay type: in vivo; settings: TIQ-A post-OVA challenge; methacholine 50 mg/ml, 24 hours after OVA exposure
Method: as §1, with “The mice used in each experiment were from the same litter or the same family. Mice were allowed to recover, and then killed by CO2 asphyxiation after 24 or 48 hours. The sacrificed mice were subjected to bronchio-alveolar lavage (BAL), or their lung tissues were dissected, fixed, and processed for histological analysis.” left out
Twenty-four hours after OVA challenge lung resistance to increasing doses of methacholine (MeCh, Sigma; 0, 25, and 50 mg/ml in isotonic saline) was assessed by forced oscillation, essentially as described in D. You et al., Respir. […]

mice = settings: administration prior to allergen challenge; cited from earlier work

O=C1N=C2SCC=C2c2ccccc21 [TIQ-A, thieno[2,3-c]isoquinolin-5-one]
TNF expression (quantitative RT-PCR) (TNF): significantly down-regulated | Eosinophil recruitment into lungs (C57BL/6 mice [1]; TIQ-A 6 mg/kg i.p. prior to OVA-challenge): significantly suppressed | Number of eosinophils in BAL fluids (C57BL/6 mice [1]; post-challenge administration compared with administration prior to challenge): substantially below that seen when the drug was administered prior to challenge | Infiltration of inflammatory cells into the airways (C57BL/6 mice [1]; single TIQ-A i.p. injection one hour or six hours after challenge): greatly reduced | Production of IL-4, IL-5 and IL-13 in BAL fluids (IL-4, IL-5 and IL-13): more effectively suppressed by administering TIQ-A after the OVA challenge than before challenge | IgE production (OVA-specific IgE; TIQ-A after OVA challenge): almost completely blocked | Levels of OVA-specific IgE in BAL fluid (OVA-specific IgE; TIQ-A prior to OVA challenge): moderate reduction | PAS-positive goblet cells in lungs (C57BL/6 mice [2]; TIQ-A one or six hours after challenge): nearly absent | Mucus production (histological mucin index) (C57BL/6 mice [2]; TIQ-A prior to OVA challenge): significantly reduced | Mucus production (histological mucin index) (C57BL/6 mice [2]; post-challenge treatment with TIQ-A): effectively blocked mucus production completely | Airway hyperresponsiveness to inhaled methacholine (C57BL/6 mice [3]): almost completely blocked | Eosinophil infiltration and associated mucus production in lung airways (mice): suppressed | Th2 cytokines, including IL-4 IL-5 and IL-13 (mice): suppressed
